Data on 1 compound can be found in US10473645B2, “Methods for identifying a receptor for a ligand and uses thereof” (UNIVERSITE DE GENEVE, priority 2014, dated 2019).

Holding throughout (test): OR transcript level by RT-qPCR after in vivo odorant exposure
Assay [1] deals with Olfr983. More on the design: species or system mouse; key to olfr983 candidate OR (RNAseq) confirmed by qPCR: The transcript downregulation of 21 out of the 26 olfactory receptor candidates obtained by RNAseq was confirmed by qPCR; false RNAseq positive candidates, namely OR candidates for which in fact mRNA was not downregulated following acetophenone exposure. Conditions: for Olfr983 mRNA level relative to unexposed controls: 5% odorant, 5 hours, in vivo, RT-qPCR. The protocol: (§1) In vivo exposure to odorant: Starting 48 h before experiments, mice were habituated to pure DMSO on a cotton ball. 200 μl were pipetted directly onto the cotton and placed in the cage, replacing any cotton that was already in the cage for nest-making purposes.
(§2) On the day of the experiment, mice receiving odorants were transferred to a different room, where they were exposed to a cotton ball on which 200 μl of odorant diluted in pure DMSO were deposited. Exposures started in the morning between 8 and 10 am (that is two hours after lights were on) and mice were killed and dissected between 1 and 3 pm. […] If a number of different odorants were tested in the same experiment, a different overpressurized room would always be used for each odorant to avoid odor cross-contamination.
(§3) After odorant exposure, mice were killed by cervical dislocation and immediately decapitated. The main olfactory epithelia (MOE), were harvested in their entirety and transferred to a tube containing 600 μl of lysis buffer and β-mercaptoethanol (RNAeasy kit, Qiagen, following the manufacturer protocol) and a 0.5 cm diameter steel ball, and then put on ice. Samples were then homogenized using a FastPrep®-24 instrument (MP Biomedicals) at 6 m/s for 30 s and left on ice. RNA extraction was performed on all samples in parallel using the Qiagen RNeasy Mini® kit following the manufacturer's instructions. Two DNase treatments were performed on all samples: first using the Qiagen RNase-Free DNase Set® and then using the Life Technologies Ambion DNase I® kit. RNA samples were then aliquoted and stored at −80° C.
RNA concentrations were determined using an Amersham Ultrospec® 3100 Pro spectrophotometer, and RNA quality was evaluated with an Agilent Technologies 2100 Bioanalyzer®. […]
qPCR Ct values were analyzed using an in-house developed Microsoft Excel® macro file. […] Ct values were converted to quantities relative to the maximum for each given gene. Selected reference genes were then analyzed for variance using the geNorm algorithm. […]
In general terms: In qPCR the cycle at which signal appears reflects the starting amount.

Assay [2] addresses T1, olfr143 (Mus musculus, UniProt P34985).
T1 construct: from tissue; host or cells: main olfactory epithelium of living mice
More on the design: key: The transcript downregulation of 21 out of the 26 olfactory receptor candidates obtained by RNAseq was confirmed by qPCR; false RNAseq positive candidates, namely OR candidates for which in fact mRNA was not downregulated following acetophenone exposure. Conditions: 5% acetophenone exposure. The protocol:
as §1, §2, §3
(§4) RNA concentrations were determined using an Amersham Ultrospec® 3100 Pro spectrophotometer, and RNA quality was evaluated with an Agilent Technologies 2100 Bioanalyzer®. Each reverse transcription was performed with 0.5 μg RNA using the Takara Primescript® kit, in a final volume of 10 μl. Primers for reverse transcription were equal mixtures of poly-T nucleotides and random hexamers. Negative controls (omitting the reverse transcriptase enzyme) were performed for each sample. 1/14th of the cDNA preparation was used for each triplicated qPCR reaction.
(§5) qPCR Ct values were analyzed using an in-house developed Microsoft Excel® macro file. Triplicate values were compared and outliers (values with a difference higher than 0.5 Ct to their nearest neighbor) were discarded. The number of conditions with an outlying value was always less than 10% of the total number of conditions. Ct values were converted to quantities relative to the maximum for each given gene. Selected reference genes were then analyzed for variance using the geNorm algorithm. All values were normalized with the olfactory tissue-specific genes Omp and Adcy3. β-Actin was used as a non-tissue-specific reference gene to control for differences in dissection between samples.
(§6) Mice (n=6) were exposed to 5% acetophenone or to a “neutral” control condition for 5 hours. An olfactory cDNA library corresponding to each animal was deep sequenced and the ratios of odorant receptor mRNA concentrations relative to controls were plotted (FIG. 3). […] Based on transcriptional downregulation levels observed by RNAseq following acetophenone exposure, a list of 26 candidate responsive ORs was determined (FIG. 3), that reached 74% decrease (Olfr145) or even over 80% (Olfr169) relative to controls. […] The transcript downregulation of 21 out of the 26 olfactory receptor candidates obtained by RNAseq was confirmed by qPCR.

Assay [3] concerns the target T2, olfr145 (Mus musculus, UniProt Q60882).
T2 construct: from tissue; host or cells: main olfactory epithelium of living mice
The arrangement: key: The transcript downregulation of 21 out of the 26 olfactory receptor candidates obtained by RNAseq was confirmed by qPCR; false RNAseq positive candidates, namely OR candidates for which in fact mRNA was not downregulated following acetophenone exposure. Conditions: 5% acetophenone exposure. The protocol: as §1, §2, §3, §4, §5, §6

Assay [4] concerns the target T3, olfr19 (Mus musculus, UniProt Q9JHB2).
T3 construct: from tissue; host or cells: main olfactory epithelium of living mice
More on the design: key: The transcript downregulation of 21 out of the 26 olfactory receptor candidates obtained by RNAseq was confirmed by qPCR; false RNAseq positive candidates, namely OR candidates for which in fact mRNA was not downregulated following acetophenone exposure. Conditions: 5% acetophenone exposure. The protocol: as §1, §2, §3, §4, §5, §6

In assay [5] the target is T4, olfr476 (Mus musculus, UniProt Q8VGI4).
T4 construct: from tissue; host or cells: main olfactory epithelium of living mice
More on the design: key: The transcript downregulation of 21 out of the 26 olfactory receptor candidates obtained by RNAseq was confirmed by qPCR; false RNAseq positive candidates, namely OR candidates for which in fact mRNA was not downregulated following acetophenone exposure. Conditions: 5% acetophenone exposure. As to the method:
as §1, §2, §3, §4, §5, §6

For assay [6], the target named is T5, olfr478 (Mus musculus, UniProt Q8VG04).
T5 construct: from tissue; host or cells: main olfactory epithelium of living mice
The arrangement: key: The transcript downregulation of 21 out of the 26 olfactory receptor candidates obtained by RNAseq was confirmed by qPCR; false RNAseq positive candidates, namely OR candidates for which in fact mRNA was not downregulated following acetophenone exposure. Conditions: 5% acetophenone exposure. As to the method: as §1, §2, §3, §4, §5, §6

The target of assay [7] is T6, olfr490 (Mus musculus, UniProt Q8VFD2).
T6 construct: from tissue; host or cells: main olfactory epithelium of living C57BL/6 mice
The arrangement: key: The transcript downregulation of 21 out of the 26 olfactory receptor candidates obtained by RNAseq was confirmed by qPCR; false RNAseq positive candidates, namely OR candidates for which in fact mRNA was not downregulated following acetophenone exposure. Conditions: 5% acetophenone exposure. The protocol:
as §1, §2, §3, §4, §5, §6

T1 sequence (P34985 whole entry): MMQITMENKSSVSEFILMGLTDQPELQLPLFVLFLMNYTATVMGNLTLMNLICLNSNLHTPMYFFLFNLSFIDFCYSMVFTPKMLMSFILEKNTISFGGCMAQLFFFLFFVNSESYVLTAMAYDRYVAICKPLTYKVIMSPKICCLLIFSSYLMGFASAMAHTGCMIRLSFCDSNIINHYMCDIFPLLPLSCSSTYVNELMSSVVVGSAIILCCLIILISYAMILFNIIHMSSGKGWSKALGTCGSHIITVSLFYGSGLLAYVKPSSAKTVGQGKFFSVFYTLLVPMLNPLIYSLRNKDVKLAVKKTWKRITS
T5 sequence (Q8VG04 whole entry): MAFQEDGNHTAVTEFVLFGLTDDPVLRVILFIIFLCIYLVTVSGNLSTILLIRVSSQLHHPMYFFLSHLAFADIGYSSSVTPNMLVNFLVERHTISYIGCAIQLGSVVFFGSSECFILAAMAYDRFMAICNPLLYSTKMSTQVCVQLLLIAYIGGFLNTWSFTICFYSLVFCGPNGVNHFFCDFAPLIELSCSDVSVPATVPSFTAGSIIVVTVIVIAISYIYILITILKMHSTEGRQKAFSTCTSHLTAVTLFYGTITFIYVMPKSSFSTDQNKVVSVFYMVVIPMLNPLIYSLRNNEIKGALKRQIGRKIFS
T6 sequence (Q8VFD2 whole entry): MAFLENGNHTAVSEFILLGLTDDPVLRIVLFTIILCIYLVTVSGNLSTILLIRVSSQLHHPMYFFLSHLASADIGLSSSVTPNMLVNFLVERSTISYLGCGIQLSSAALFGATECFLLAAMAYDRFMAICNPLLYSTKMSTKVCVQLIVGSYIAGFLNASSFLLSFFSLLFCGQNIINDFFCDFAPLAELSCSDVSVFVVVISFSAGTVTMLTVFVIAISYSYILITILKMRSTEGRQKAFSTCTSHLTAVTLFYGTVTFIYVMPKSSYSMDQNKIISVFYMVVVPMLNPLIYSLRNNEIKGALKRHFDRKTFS
T2 sequence (Q60882 whole entry): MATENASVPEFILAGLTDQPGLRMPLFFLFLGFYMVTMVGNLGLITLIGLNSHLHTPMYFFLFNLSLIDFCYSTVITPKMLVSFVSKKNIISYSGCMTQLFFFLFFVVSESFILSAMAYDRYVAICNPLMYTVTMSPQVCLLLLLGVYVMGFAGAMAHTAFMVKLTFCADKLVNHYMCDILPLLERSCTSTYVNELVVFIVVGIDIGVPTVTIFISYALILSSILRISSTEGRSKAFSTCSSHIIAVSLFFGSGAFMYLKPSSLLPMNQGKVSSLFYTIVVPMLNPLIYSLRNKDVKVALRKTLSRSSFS
T4 sequence (Q8VGI4 whole entry): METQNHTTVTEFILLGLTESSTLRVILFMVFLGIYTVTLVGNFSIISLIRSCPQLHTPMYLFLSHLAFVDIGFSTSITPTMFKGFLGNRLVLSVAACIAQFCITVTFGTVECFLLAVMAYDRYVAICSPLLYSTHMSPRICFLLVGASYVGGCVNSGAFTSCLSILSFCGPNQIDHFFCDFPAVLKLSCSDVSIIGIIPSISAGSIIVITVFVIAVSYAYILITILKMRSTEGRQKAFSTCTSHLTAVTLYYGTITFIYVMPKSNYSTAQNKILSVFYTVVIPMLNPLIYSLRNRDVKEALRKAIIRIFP
T3 sequence (Q9JHB2 whole entry): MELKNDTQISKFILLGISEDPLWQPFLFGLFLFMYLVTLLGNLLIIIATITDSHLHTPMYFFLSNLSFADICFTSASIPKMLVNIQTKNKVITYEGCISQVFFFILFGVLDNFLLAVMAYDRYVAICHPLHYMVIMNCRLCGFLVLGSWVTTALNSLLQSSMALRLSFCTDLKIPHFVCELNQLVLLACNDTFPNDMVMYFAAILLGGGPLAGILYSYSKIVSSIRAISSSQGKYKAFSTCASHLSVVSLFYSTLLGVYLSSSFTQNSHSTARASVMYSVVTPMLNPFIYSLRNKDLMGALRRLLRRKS

`CC(=O)c1ccccc1` [acetophenone]: in assay [1] (5% acetophenone exposure), the “olfr983 candidate OR (RNAseq) confirmed by qPCR” value is on record as “y”. The results for the “Olfr983 mRNA level relative to unexposed controls” value in assay [1] and in assay [1] (listed as Acetophenone) were “decrease” and “downregulates”, respectively. In assay [2], the “olfr143 candidate OR (RNAseq) confirmed by qPCR” value is given as “y”. Moreover, the “olfr145 candidate OR (RNAseq) confirmed by qPCR” value in assay [3] is listed as “y”. The “olfr19 candidate OR (RNAseq) confirmed by qPCR” value in assay [4] is “y”. Also, the “olfr476 candidate OR (RNAseq) confirmed by qPCR” value in assay [5] was “y”. Moreover, in assay [6], the “olfr478 candidate OR (RNAseq) confirmed by qPCR” value is given as “y”. Also, the “olfr490 candidate OR (RNAseq) confirmed by qPCR” value in assay [7] is “n”.
